The target in one assay is T1, CDK4-CYCLIND1 (Homo sapiens, UniProt P11802).
T1 construct: purchased Invitrogen
Put plainly: Inhibition assay, microfluidic LabChip (Nanosyn). Conditions: Table 2; ATP 200 μM; read-out: CDK4 IC50. Type of assay: biochemical. As to the method:
(§1) The reaction was terminated by the addition of EDTA. The plates were analyzed using a Caliper LabChip 3000.
(§2) Additional inhibition assays were performed as described above.

Another assay deals with T2, CDK6-CYCLIND3 (Homo sapiens, UniProt Q00534).
T2 construct: purchased Carna
T2 sequence (Q00534 whole entry): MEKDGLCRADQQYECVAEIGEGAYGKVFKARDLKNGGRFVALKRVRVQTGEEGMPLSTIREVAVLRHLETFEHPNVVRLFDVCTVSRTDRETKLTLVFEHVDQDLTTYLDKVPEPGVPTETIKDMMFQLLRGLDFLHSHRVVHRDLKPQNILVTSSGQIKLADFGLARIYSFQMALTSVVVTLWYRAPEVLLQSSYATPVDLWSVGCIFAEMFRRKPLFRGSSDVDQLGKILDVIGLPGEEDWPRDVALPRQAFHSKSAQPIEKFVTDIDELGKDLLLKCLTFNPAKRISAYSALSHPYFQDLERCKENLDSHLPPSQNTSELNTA
T2 sequence (P30281 whole entry partner): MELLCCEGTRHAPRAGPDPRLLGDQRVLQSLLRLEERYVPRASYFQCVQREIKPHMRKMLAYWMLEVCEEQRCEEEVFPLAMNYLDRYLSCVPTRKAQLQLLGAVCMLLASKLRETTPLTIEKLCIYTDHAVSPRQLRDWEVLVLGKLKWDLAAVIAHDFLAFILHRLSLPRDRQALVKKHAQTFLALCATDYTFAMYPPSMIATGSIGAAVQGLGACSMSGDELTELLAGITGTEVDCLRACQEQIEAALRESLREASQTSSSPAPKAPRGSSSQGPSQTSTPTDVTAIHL
Kind of assay: Inhibition assay, microfluidic LabChip (Nanosyn). The format is biochemical. Conditions: Table 2; ATP 300 μM; read-out: CDK6 IC50. As to the method:
as §1, §2

T1 sequence (P11802 whole entry): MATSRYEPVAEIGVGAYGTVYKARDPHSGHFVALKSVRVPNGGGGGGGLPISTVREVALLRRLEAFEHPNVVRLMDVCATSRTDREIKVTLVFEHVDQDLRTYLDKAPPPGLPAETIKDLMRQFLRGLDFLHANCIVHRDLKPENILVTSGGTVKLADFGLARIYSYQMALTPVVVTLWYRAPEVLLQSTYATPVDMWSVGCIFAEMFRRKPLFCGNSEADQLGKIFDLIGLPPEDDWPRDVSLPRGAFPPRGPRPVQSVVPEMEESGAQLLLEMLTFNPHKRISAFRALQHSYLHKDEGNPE
T1 sequence (P24385 whole entry partner): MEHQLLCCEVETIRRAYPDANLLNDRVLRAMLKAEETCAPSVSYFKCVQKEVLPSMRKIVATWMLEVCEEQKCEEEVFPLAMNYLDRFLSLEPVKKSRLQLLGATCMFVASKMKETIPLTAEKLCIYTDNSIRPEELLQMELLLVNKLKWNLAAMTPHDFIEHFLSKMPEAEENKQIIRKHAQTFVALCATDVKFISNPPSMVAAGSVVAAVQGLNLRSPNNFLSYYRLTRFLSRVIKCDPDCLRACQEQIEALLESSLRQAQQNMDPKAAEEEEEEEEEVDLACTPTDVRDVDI

For `CN(C)C(=O)c1c(F)c2cnc(Nc3ccc(N4CCN5CCC4CC5)cn3)nc2n1C1CCCC1` [Compound A10, 2-((5-(1,4-diazabicyclo[3.2.2]nonan-4-yl)pyridin-2-yl)amino)-7-cyclopentyl-5-fluoro-N,N-dimethyl-7H-pyrrolo[2,3-d]pyrimidine-6-carboxamide], the half-inhibitory concentration (IC50) at CDK4-CYCLIND1 is 30.4 nM; on CDK6-CYCLIND3 it was 50 nM.
`CC(C)N1CCN(c2ccc(Nc3ncc4cc(C(=O)N(C)C)n(C5CCCC5)c4n3)cc2F)CC1` [Compound A11, 7-cyclopentyl-2-((3-fluoro-4-(4-isopropylpiperazin-1-yl)phenyl)amino)-N,N-dimethyl-7H-pyrrolo[2,3-d]pyrimidine-6-carboxamide]: the values for the IC50 on CDK4-CYCLIND1 and at CDK6-CYCLIND3 were 3.88 nM and 12 nM, respectively.
As to `CN(C)C(=O)c1cc2cnc(Nc3ccc(N4CCNCC4)cn3)nc2n1C12CC(C1)C2` [Compound A12, 7-(bicyclo[1.1.1]pentan-1-yl)-N,N-dimethyl-2-((5-(piperazin-1-yl)pyridin-2-yl)amino)-7H-pyrrolo[2,3-d]pyrimidine-6-carboxamide], the IC50 on CDK4-CYCLIND1 stood at 12.4 nM; on CDK6-CYCLIND3 it was 10 nM.
On to `CN(C)C(=O)c1cc2cnc(Nc3ccc(C4=CCNCC4)cn3)nc2n1C12CC(C1)C2` [Compound A13, 7-(bicyclo[1.1.1]pentan-1-yl)-N,N-dimethyl-2-((1′,2′,3′,6′-tetrahydro-[3,4′-bipyridin]-6-yl)amino)-7H-pyrrolo[2,3-d]pyrimidine-6-carboxamide], for which the IC50 was 14.7 nM on CDK4-CYCLIND1 and 8.29 nM on CDK6-CYCLIND3.
For `CN(C)CCOc1ccc(Nc2ncc3cc(C(=O)N(C)C)n(C45CC(C4)C5)c3n2)nc1` [Compound A15, 7-(bicyclo[1.1.1]pentan-1-yl)-2-((5-(2-(dimethylamino)ethoxy)pyridin-2-yl)amino)-N,N-dimethyl-7H-pyrrolo[2,3-d]pyrimidine-6-carboxamide], in that order: 31.5 nM and 23.8 nM.
Taken in the same sequence, the figures for `CN(C)C(=O)c1cc2cnc(Nc3ccc(N4CCNCC4)cc3)nc2n1C12CC(C1)C2` [Compound A16, 7-(bicyclo[1.1.1]pentan-1-yl)-N,N-dimethyl-2-((4-(piperazin-1-yl)phenyl)amino)-7H-pyrrolo[2,3-d]pyrimidine-6-carboxamide] were 2.94 nM and 7.68 nM.
With `CN(C)C(=O)c1cc2cnc(Nc3ccc(N4CCNCC4)c(F)c3)nc2n1C12CC(C1)C2` [Compound A17, 7-(bicyclo[1.1.1]pentan-1-yl)-2-((3-fluoro-4-(piperazin-1-yl)phenyl)amino)-N,N-dimethyl-7H-pyrrolo[2,3-d]pyrimidine-6-carboxamide], the IC50 is 3.04 nM on CDK4-CYCLIND1 and 8.04 nM on CDK6-CYCLIND3.
Consider `CN1CCN(c2cnc(Nc3ncc4c(F)c(C(=O)N(C)C)n(C5CCCC5)c4n3)cc2C(F)(F)F)CC1` [Compound A18, 7-cyclopentyl-5-fluoro-N,N-dimethyl-2-((5-(4-methylpiperazin-1-yl)-4-(trifluoromethyl)pyridin-2-yl)amino)-7H-pyrrolo[2,3-d]pyrimidine-6-carboxamide], for which the half-maximal inhibitory concentration (IC50) at CDK4-CYCLIND1 was 2740 nM; on CDK6-CYCLIND3, 12600 nM.
As to `CN1CCN(c2ccc(Nc3ncc4c(F)c(C(=O)N(C)C)n(C5CCCC5)c4n3)cc2)CC1` [Compound A19, 7-cyclopentyl-5-fluoro-N,N-dimethyl-2-((4-(4-methylpiperazin-1-yl)phenyl)amino)-7H-pyrrolo[2,3-d]pyrimidine-6-carboxamide], the IC50 amounted to 15.4 nM on CDK4-CYCLIND1 and 45.3 nM at CDK6-CYCLIND3.
Regarding `CN(C)C(=O)c1c(F)c2cnc(Nc3ccc(N4CCOCC4)c(F)c3)nc2n1C1CCCC1` [Compound A20, 7-cyclopentyl-5-fluoro-2-((3-fluoro-4-morpholinophenyl)amino)-N,N-dimethyl-7H-pyrrolo[2,3-d]pyrimidine-6-carboxamide], the values for the IC50 on CDK4-CYCLIND1 and on CDK6-CYCLIND3 were 33 nM and 74.6 nM, respectively.
`CC(C)N1CC=C(c2ccc(Nc3ncc4c(F)c(C(=O)N(C)C)n(C5CCCC5)c4n3)nc2)CC1` [Compound A21, 7-cyclopentyl-5-fluoro-2-((1′-isopropyl-1′,2′,3′,6′-tetrahydro-[3,4′-bipyridin]-6-yl)amino)-N,N-dimethyl-7H-pyrrolo[2,3-d]pyrimidine-6-carboxamide]: the half-inhibitory concentration (IC50) at CDK4-CYCLIND1 turned out to be 51.2 nM; on CDK6-CYCLIND3, 98.6 nM.
For `CN(C)C(=O)c1c(F)c2cnc(Nc3ccc(C4=CCNCC4)cn3)nc2n1C1CCCC1` [Compound A22, 7-cyclopentyl-5-fluoro-N,N-dimethyl-2-((1′,2′,3′,6′-tetrahydro-[3,4′-bipyridin]-6-yl)amino)-7H-pyrrolo[2,3-d]pyrimidine-6-carboxamide], in that order: 41.7 nM and 82 nM.
For the compound `CN(C)C(=O)c1cc2cnc(Nc3ccc(N4CCN(C#N)CC4)cn3)nc2n1C1CCCC1` [Compound A23, 2-((5-(4-cyanopiperazin-1-yl)pyridin-2-yl)amino)-7-cyclopentyl-N,N-dimethyl-7H-pyrrolo[2,3-d]pyrimidine-6-carboxamide], the IC50 was 34.3 nM on CDK4-CYCLIND1 and 97 nM at CDK6-CYCLIND3.
Take `CN(C)C(=O)c1cc2cnc(Nc3cc(C(F)(F)F)c(N4CCNCC4)cn3)nc2n1C1CCCC1` [Compound A24, 7-cyclopentyl-N,N-dimethyl-2-((5-(piperazin-1-yl)-4-(trifluoromethyl)pyridin-2-yl)amino)-7H-pyrrolo[2,3-d]pyrimidine-6-carboxamide]: the IC50 worked out at 457 nM at CDK4-CYCLIND1 and 1430 nM at CDK6-CYCLIND3.
For `CN(C)C(=O)c1c(F)c2cnc(Nc3cc(C(F)(F)F)c(N4CCNCC4)cn3)nc2n1C1CCCC1` [Compound A25, 7-cyclopentyl-5-fluoro-N,N-dimethyl-2-((5-(piperazin-1-yl)-4-(trifluoromethyl)pyridin-2-yl)amino)-7H-pyrrolo[2,3-d]pyrimidine-6-carboxamide], in that order: 2290 nM and 4860 nM.
In the case of `CN(C)C(=O)c1c(F)c2cnc(Nc3ccc(OCCN4CCCC4)nc3)nc2n1C1CCCC1` [Compound A26, 7-cyclopentyl-5-fluoro-N,N-dimethyl-2-((6-(2-(pyrrolidin-1-yl)ethoxy)pyridin-3-yl)amino)-7H-pyrrolo[2,3-d]pyrimidine-6-carboxamide], the IC50 at CDK4-CYCLIND1 was found to be 39.3 nM; on CDK6-CYCLIND3, 119 nM.
As to `CN(C)C(=O)c1c(F)c2cnc(Nc3ccc(OCCN4CCCCC4)nc3)nc2n1C1CCCC1` [Compound A27, 7-cyclopentyl-5-fluoro-N,N-dimethyl-2-((6-(2-(piperidin-1-yl)ethoxy)pyridin-3-yl)amino)-7H-pyrrolo[2,3-d]pyrimidine-6-carboxamide], the IC50 on CDK4-CYCLIND1 stood at 39.6 nM; on CDK6-CYCLIND3, 116 nM.
As for `CN1CCN(c2ccc(Nc3ncc4c(F)c(C(=O)N(C)C)n(C5CCCC5)c4n3)cn2)CC1` [Compound A28, 7-cyclopentyl-5-fluoro-N,N-dimethyl-2-((6-(4-methylpiperazin-1-yl)pyridin-3-yl)amino)-7H-pyrrolo[2,3-d]pyrimidine-6-carboxamide], the IC50 is 26.6 nM at CDK4-CYCLIND1 and 81.9 nM on CDK6-CYCLIND3.
`CN(C)C(=O)c1c(F)c2cnc(N3CCN(c4ccc(C#N)cc4)CC3)nc2n1C1CCCC1` [Compound A29, 2-(4-(4-cyanophenyl)piperazin-1-yl)-7-cyclopentyl-5-fluoro-N,N-dimethyl-7H-pyrrolo[2,3-d]pyrimidine-6-carboxamide]: the IC50 at CDK4-CYCLIND1 and at CDK6-CYCLIND3 was greater than 30000 nM in each case.

In general, IC50 refers to the concentration that inhibits the measured activity by half.

These data come from US20220056037A1 (SPV THERAPEUTICS INC., priority 2018, published 2022).
